Source: ChEMBL document CHEMBL1201862, “PubChem BioAssay data set” (2004)
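All cell lines were grown in 96-well plates and treated with compound for 48 hours. GI50: concentration for 50% inhibition of growth.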 Calls of active or inactive are those of the source. Rule as the data show it: active = GI50 up to about 1.1 µM and inactive = higher.

Columns and labels:
Test in all cases: NCI anticancer screen, dose series, 48 h
[1] = system: DMS-273
[2] = system: HOP-18
[3] = system: KM-20L2
[4] = system: LXFL 529
[5] = system: M19-MEL
[6] = system: RXF 631
[7] = system: XF498
[8] = system: DMS-114

SMILES	GI50 [1]	GI50 [2]	GI50 [3]	GI50 [4]	GI50 [5]	GI50 [6]	GI50 [7]	GI50 [8]
COc1ccc(/C=C2/CSC/C(=C/c3ccc(OC)c(OC)c3)C2=O)cc1OC	1.03 µM (active)	6.65 µM (inactive)	2.3 µM (inactive)	1.93 µM (inactive)	2.14 µM (inactive)	1.99 µM (inactive)	11.7 µM (inactive)	–
CC(=O)NCc1c(C(N)=O)ncn1Cc1ccccc1	> 100 µM (inactive)	> 100 µM (inactive)	> 100 µM (inactive)	> 100 µM (inactive)	> 100 µM (inactive)	> 100 µM (inactive)	> 100 µM (inactive)	> 100 µM (inactive)
O/N=C1/C(=C/c2ccc(Oc3ccccc3)cc2)CCCC1C(NO)c1ccc(Oc2ccccc2)cc1 (stereo not drawn)	28.6 µM (inactive)	> 100 µM (inactive)	11.2 µM (inactive)	33 µM (inactive)	39.6 µM (inactive)	33.2 µM (inactive)	29.7 µM (inactive)	26.4 µM (inactive)
O=C1c2ccccc2C(=O)N1C/C=N/NS(=O)(=O)c1ccc2ccccc2c1	> 100 µM (inactive)	> 100 µM (inactive)	> 100 µM (inactive)	> 100 µM (inactive)	> 100 µM (inactive)	> 100 µM (inactive)	> 100 µM (inactive)	–
N#CC(/C(CCCC(=O)Nc1cccc([N+](=O)[O-])c1)=N/NC(=O)c1cc2ccccc2cc1O)c1ccccc1 (stereo not drawn)	–	18.3 µM (inactive)	38 µM (inactive)	27.2 µM (inactive)	17.9 µM (inactive)	29.8 µM (inactive)	25 µM (inactive)	20.2 µM (inactive)
CC(=O)Oc1ccc(O)c2c1CCCC2	> 46.1 µM (inactive)	21.6 µM (inactive)	> 100 µM (inactive)	16.3 µM (inactive)	13.4 µM (inactive)	> 100 µM (inactive)	16.4 µM (inactive)	30.2 µM (inactive)
COC1=CC(C2c3cc4c(cc3[C@@H](Nc3ccc([N+](=O)[O-])cc3)C3COC(=O)[C@H]23)OCO4)=CC(=O)C1=O (stereo partly drawn)	0.697 µM (active)	53.6 µM (inactive)	9.1 µM (inactive)	16.4 µM (inactive)	6.4 µM (inactive)	2.29 µM (inactive)	5.5 µM (inactive)	2.57 µM (inactive)
